Test results from US12110258B2, “Coated fertilizer containing urease inhibitor” (SABIC Agri-Nutrients Company, priority 2018, dated 2024).

Assay: Inhibitor Stability Test (HPLC, non-degraded NBTPT remaining after storage)
Details: 2 weeks, RT (23 to 26° C.)
Experimental: Inhibitor Stability Test: The stability test is used to indicate changes in stability of the urease inhibitor in different coated fertilizers or coating compositions under multiple conditions for different amounts of time. HPLC analysis was used to determine the amount of non-degraded inhibitor remaining at the end of the testing periods. Briefly, for the HPLC analysis procedure, approximately 4 grams of a sample and 20 ml of diluent was added into a 50 ml polypropylene tube. The sample was sonicated for 30 minutes with intermediate shaking and then vortexed for 1 hour using a vortex shaker. After vortexing, the sample was filtered using a 0.45μ syringe filter into a HPLC vial and injected into the HPLC.
Chromatographic Conditions:
• Column: Phenomenex, Luna 5u Pnenyl hexyl 250*4.6, 5μ • Column oven temperature: 350° C. • Injection Vol.: 5 μL • Flow rate: 1.00 mL/min • Mobile Phase: Reservoir A—Milli Q Water; Reservoir C—Acetonitrile; Isocratic—Milli Q water/Acetonitrile (80:20% v/v) • Run Time: 15 minutes • Wavelength: 207 nm
Calculation: Calibration standards were injected in duplicate and the calibration curve for NBTPT was constructed by plotting the concentration (mg/mL) in X-axis and Instrument response (area) in the Y-axis. The unknown concentrations of NBTPT in the samples were calculated using the formula y=mx+c with the appropriate dilution factor applied. […]

CCCCNP(N)(N)=S [compound 4, N-(n-butyl) thiophosphoric triamide]
% NBTPT Degradation: 0%
